Measured values reported in patent US20250098692A1, “GERMINATION/SPROUTING AND FRUIT RIPENING REGULATORS” (The United States of America, as Represented by the …, priority 2021, published 2025).

Experiments:
[1] = tested on: strawberry fruit; test: PAD analogs: ability to delay strawberry fruit ripening; assay type: in vivo; settings: for effect on strawberry fruit ripening: 50 μM in 0.1% TRITON-X 100
Method: Chemicals with similarity to PAD were tested for their ability to delay fruit ripening.
To the inventors' knowledge, no chemical closely-related to PAD is currently commercially available. A few analogs with 88-99% similarity to PAD were found in the ChemBridge database used in Example 1.

[2] = tested on: Strawberry seeds (Fragaria x ananassa CV. Albion); test: Chemical library screening for promotion of strawberry seed germination; assay type: in vivo; settings: about 5 μM chemical in 0.1% TRITON X-100, 96 well plates, 25 C
Text: Chemical libraries of small compounds were screened for compounds capable of promoting seed germination, delaying the fruit ripening process, and/or retarding fruit pigmentation. A chemical library containing 10,000 small compounds (˜300 Dalton) was purchased from ChemBridge Co (San Diego, California, USA). Strawberry seeds (Fragaria x ananassa CV. Albion) were purchased from Johnny's Seeds (Fairfield, Maine, USA). Five to six seeds were sterilized with 70% ethanol and added to each well of 96 well ELISA plates containing about 5 μM chemical in 0.1% TRITON X-100 surfactant (polyethylene glycol tert-octylphenyl ether). One mM abscisic acid (ABA), a hormone that inhibits seed germination, and gibberellic acid (GA3), a hormone that promotes seed germination, were used as controls. Each experiment was conducted in triplicate. Plates were kept in a growth chamber at 25 C under dark, and a 14 hour light/10 hour dark cycle was added after seed germination was observed.

[3] = tested on: strawberry fruit; test: Strawberry fruit ripening after dipping fruits on the plant; assay type: in vivo, Fragaria x ananassa CV. Albion; settings: for strawberry appearance (FIG. 2B): 8 DAT; for strawberry appearance (FIG. 2B) / strawberry appearance (FIG. 2C) / strawberry appearance (FIG. 2D) / strawberry appearance (FIG. 2E) / strawberry appearance (FIG. 2F) / fruit started to turn red: 10 μM PAD or 1 mM ABA; for strawberry appearance (FIG. 2C): 9 DAT; for strawberry appearance (FIG. 2D): 10 DAT; for strawberry appearance (FIG. 2E): 11 DAT; for strawberry appearance (FIG. 2F): 12 DAT; for effect on strawberry fruit ripening compared to mock-treated fruit: dipped 20 seconds eight days after pollination, 10 μM PAD or 1 mM ABA in 0.1% TRITON X-100
Method: Strawberry plants (Fragaria x ananassa CV. Albion) were grown in a greenhouse at 28° C. and 14-hour light/10-hour dark conditions. Eight days after pollination, fruits were dipped for 20 seconds in 10 µM PAD in 0.1% TRITON X-100 surfactant; 1 mM ABA in 0.1% TRITON X-100 surfactant; or buffer alone (0.1% Triton X-100). Fruits were allowed to continue growing on the plants. FIG. 1 depicts images of strawberry fruit development under standard conditions.
Of the twelve chemicals identified in Example 1 as promoting seed germination, N-[3-chloro-4-(4-propionyl-1-piperazinyl)phenyl]-2-phenylacetamide was named “PAD,” and used for further study. […] Mock-treated fruit started to turn red at 10 DAT, and reached full red at 12 DAT. ABA-treated fruit started to turn red 9 DAT, and reached full red 11 DAT. In contrast, PAD-treated fruit only started turning red 12 DAT.

[4] = tested on: Cherry tomato fruits; test: Cherry tomato ripening after injection at mature green stage; assay type: in vivo; settings: for cherry tomato appearance (FIG. 3B, FIG. 3D): 6 DAT, injected 10 µM PAD or 200 μM ABA (figure legend); for ripening stage of cherry tomato fruits: six days after treatment, injected 50 μM PAD or 200 μM ABA
Method: Cherry tomato fruits at mature green stage were purchased from Butler's Orchard (Germantown, Maryland, USA). […] FIG. 3A and FIG. 3B show images of cherry tomatoes injected with 50 µM PAD. FIG. 3C and FIG. 3D show images of cherry tomatoes injected with 200 μM ABA. FIG. 3E and FIG. 3F show images of cherry tomatoes injected with buffer alone. FIG. 3G and FIG. 3H show images of untreated tomatoes. FIG. 3A; FIG. 3C; FIG. 3E; and FIG. 3G show images taken the day of treatment. FIG. 3B; FIG. 3D; […]; and FIG. 3H show images taken 6 DAT.

[5] = tested on: strawberry fruit; test: Strawberry fruit ripening after injection of fruits; assay type: in vivo, Fragaria x ananassa CV. Albion; settings: for strawberry appearance (FIG. 4A): 8 DAT; for strawberry appearance (FIG. 4A) / strawberry appearance (FIG. 4B) / strawberry appearance (FIG. 4C) / strawberry appearance (FIG. 4D) / strawberry appearance (FIG. 4E) / fruit started to turn red: 10 µM PAD or 200 μM ABA; for strawberry appearance (FIG. 4B): 9 DAT; for strawberry appearance (FIG. 4C): 10 DAT; for strawberry appearance (FIG. 4D): 11 DAT; for strawberry appearance (FIG. 4E): 12 DAT
Method: Strawberry plants (Fragaria x ananassa CV. Albion) were grown and maintained as disclosed above. Fourteen days after pollination fruits were injected with 10 µM PAD in 0.1% TRITON X-100 surfactant; 200 μM ABA in 0.1% TRITON X-100 surfactant; or buffer alone (0.1% Triton X-100 surfactant).
FIG. 4A to FIG. 4F depict images of strawberries treated with either 10 µM PAD in 0.1% TRITON X-100 surfactant; 200 μM ABA in 0.1% TRITON X-100 surfactant; buffer alone ([…] surfactant; mock-treated); or not injected (control). […] Control fruit started to turn red 11 DAT, and reached full red at 12 DAT. Mock-treated fruit started to turn red at 10 DAT, and reached full red at 12 DAT. ABA-treated fruit started to turn red 9 DAT, and reached full red 11 DAT. In contrast, PAD-treated fruit only started turning red 12 DAT.

[6] = tested on: strawberry fruit; test: Strawberry fruit ripening after dipping fruits on the plant; assay type: in vivo, Fragaria x ananassa CV. Albion; settings: 10 μM PAD applied on day 9 after pollination

In the case of `CC(C)C(=O)N1CCN(c2ccc(NC(=O)C(c3ccccc3)c3ccccc3)cc2Cl)CC1` [N-(3-chloro-4-(4-isobutyryl-1-piperazinyl)phenyl]-2,2-diphenylacetamide], the “effect on strawberry fruit ripening” value [1] was “no obvious effect”.
`CCC(=O)N1CCN(c2ccc(NC(=O)Cc3ccccc3)cc2Cl)CC1` [PAD, N-[3-chloro-4-(4-propionyl-1-piperazinyl)phenyl]-2-phenylacetamide] was tested, and the promoting seed germination [2] was “promoted seed germination”, the “strawberry appearance (FIG. 2B)” value ([3]; dipped) was “white with a greenish tint” and the “strawberry appearance (FIG. 2C)” value ([3]; dipped) was “whit with a greenish tint”. For the same compound, the “strawberry appearance (FIG. 2D)” value ([3]; dipped) was “white with a greenish tint”, the “strawberry appearance (FIG. 2E)” value ([3]; dipped) was “white” and the “strawberry appearance (FIG. 2F)” value ([3]; dipped) was “red with some yellow”. The “fresh weight of strawberry fruit larger than mock-treated” value ([3]; PAD-treated vs mock-treated) was “about 10%”, the “sugar content versus mock-treated controls” value ([3]; PAD-treated vs mock-treated) was “no difference in the sugar content” and the “effect on strawberry fruit ripening compared to mock-treated fruit” value [3] was “delayed fruit ripening”. For the same compound, the “fruit started to turn red” value ([3]; dipped, days after treatment) was 12 DAT, the “cherry tomato appearance (FIG. 3B, FIG. 3D)” value [4] was “with a yellow and/or yellow/red tint” and the “effect on cherry tomato ripening compared to mock-treated or untreated” value ([4]; injected 50 μM PAD) was “delay in cherry tomato ripening”. The “delay in cherry tomato fruit ripening” value ([4]; mature green stage, 50 μM PAD) was “about a seven-day delay”, the “ripening stage of cherry tomato fruits” value [4] was “still at a green stage” and the “strawberry appearance (FIG. 4A)” value ([5]; injected) was “with pink spots”. The “strawberry appearance (FIG. 4B)” value ([5]; injected) was “orange”, the “strawberry appearance (FIG. 4C)” value ([5]; injected) was “mostly red” and the “strawberry appearance (FIG. 4D)” value ([5]; injected) was “mostly red”. The “strawberry appearance (FIG. 4E)” value ([5]; injected) was “red”, the “effect on strawberry fruit ripening compared to not-treated, mock-treated and ABA treated fruit” value ([5]; injected fourteen days after pollination, 10 µM PAD) was “delayed fruit ripening” and the “fruit started to turn red” value ([5]; injected, days after treatment) was 12 DAT. For the same compound, the “delay of strawberry fruit ripening compared with mock-treated” value [6] was “about 2 days”.
`CC1=CC(=O)CC(C)(C)[C@@]1(O)/C=C/C(C)=C\C(=O)O` [ABA, abscisic acid, reference compound] was tested, and the “strawberry appearance (FIG. 2B)” value ([3]; dipped) was “white”, the “strawberry appearance (FIG. 2C)” value ([3]; dipped) was “with pink spots” and the “strawberry appearance (FIG. 2D)” value ([3]; dipped) was “mostly red”. The “strawberry appearance (FIG. 2E)” value ([3]; dipped) was “red”, the “strawberry appearance (FIG. 2F)” value ([3]; dipped) was “red” and the “effect on strawberry fruit ripening compared to mock-treated fruit” value [3] was “stimulated strawberry fruit ripening”. For the same compound, the “fruit started to turn red” value ([3]; dipped, days after treatment) was 9 DAT, the “fruit reached full red” value ([3]; dipped, 1 mM ABA, days after treatment) was 11 DAT and the “cherry tomato appearance (FIG. 3B, FIG. 3D)” value [4] was “red”. The “ripening stage of cherry tomato fruits” value [4] was “fully ripen (red stage)”, the “strawberry appearance (FIG. 4A)” value ([5]; injected) was “with pink spots” and the “strawberry appearance (FIG. 4B)” value ([5]; injected) was “mostly red”. The “strawberry appearance (FIG. 4C)” value ([5]; injected) was “mostly red”, the “strawberry appearance (FIG. 4D)” value ([5]; injected) was “mostly red” and the “strawberry appearance (FIG. 4E)” value ([5]; injected) was “red”. The “fruit started to turn red” value ([5]; injected, days after treatment) was 9 DAT and the “fruit reached full red” value ([5]; injected, 200 μM ABA, days after treatment) was 11 DAT.
`CC(C)C(=O)N1CCN(c2ccc(NC(=O)Cc3ccc(Cl)cc3)cc2)CC1` [2-(4-chlorophenyl)-N-[4-(4-isobutyryl-1-piperazinyl)phenyl]acetamide] was tested, and the “effect on strawberry fruit ripening” value [1] was “no obvious effect”.
With `CC(C)(C)C(=O)N1CCN(c2ccc(NC(=O)Cc3ccccc3)cc2Cl)CC1` [N-(3-chloro-4-[4-(2,2-dimethylpropanoyl)-1-piperazinyl]phenyl)-2-phenylacetamide] the “effect on strawberry fruit ripening” value [1] was “delayed strawberry fruit ripening” and the “effectiveness in delaying strawberry fruit ripening relative to PAD” value ([1]; 50 μM in 0.1% TRITON-X 100, same timing as PAD) was “much less effectively than PAD”.
